Read-outs that look alike come from different tables or passages of the source.
What was measured:
Assay in all cases: microbe, parasite or virus in culture
Format in all cases: cell-based, Hepatitis C virus (HCV)
Conditions in all cases: Replicon Assay A
HCV replicon 1AY93H = tested on: HCV replicon 1AY93H
Protocol: (§1) To measure cell-based anti-HCV activity of compounds of the present invention, two complimentary assays were employed using various replicons. In the first assay (“Replicon Assay A”), replicon cells were seeded at 2000 cells/well in 384-well 384-well flat bottom tissue culture treated clear bottom plate (Corning 3707) in the presence of the test compound. […] The final concentration of DMSO was 0.5%. Fetal bovine serum was 5%, in the assay media. Cells were harvested on day 3 by removing media and washing the cells with a suitable wash buffer. The cells are lysed with the addition of 1× Qiagen lysis buffer (Cat #1062731). The replicon RNA level was measured using real time PCR (TaqMan® EZ RT-PCR, Applied Biosystems 403028) with the following primers and probes: […]
(§2) Cyclophilin RNA was used as endogenous control and was amplified in the same reaction as NS5B (multiplex PCR). The real-time RT-PCR reactions were run on ABI PRISM 7900HT Sequence Detection System using the following program: 50° C. for 2 minutes, 60° C. for 30 minutes, 95° C. for 5 minutes, 40 cycles of 94° C. for 20 sec, 55° C. for 1 minutes.
(§3) The amount of HCV replicon RNA per cell is quantified using a linear regression curve for a known nanogram (ng) amount of HCV replicon total RNA. This is established by plotting the Cycle Threshold values (Ct) from the Neo probe and primer set versus the log (ng) for each HCV replicon total RNA standard. The amount of HCV RNA for each replicon sample is calculated by taking the sample's Ct value, minus the line intercept, divided by the slope of the line. Similarly, the amount of Cyclophilin mRNA per cell is also quantified using a linear regression curve for a known nanogram (ng) amount of HCV replicon total RNA. Again, this is established by plotting the Cycle Threshold values (Ct) from the Cyclophilin probe and primer set versus the log (ng) for each HCV replicon total RNA standard.
(§4) Data for replicons 1A, 1AY93H and 2B were obtained using Replicon Assay A and data for replicons 1AQ30D and 1B were obtained using Replicon Assay B.

HCV replicon 1A = tested on: HCV replicon 1A
Protocol: as §1, §2, §3, §4

HCV replicon 2B = tested on: HCV replicon 2B
Protocol: as §1, §2, §3, §4

[1] = read-out: 1A Y93H IC50, replicon 1AY93H
[2] = read-out: 1A Y93H IC50, HCV replicon 1A Y93H
[3] = Hepatitis C virus, HCV replicon 1A
[4] = Hepatitis C virus, read-out: 1A Y93H IC50 (nM), replicon 1AY93H
[5] = Hepatitis C virus, read-out: 2B IC50 (nM), replicon 2B

Q: What does the source list for COC(=O)NC(C(=O)N1CCC[C@H]1c1ncc(-c2ccc3c(c2)cc2n3C(c3cc(C)c(C)s3)Oc3cc(-c4cnc([C@@H]5CCCN5C(=O)[C@@H](NC(=O)OC)C(C)C)[nH]4)cc(F)c3-2)[nH]1)C(C)(C)F (single isomer, unassigned) [Compound 42]?
A: IC50 (HCV replicon 1AY93H; [1]): 42.5 nM; IC50 (HCV replicon 1A; replicon 1A): 0.0287 nM

Q: How did the IC50 (HCV replicon 1AY93H; [1]) turn out when CCc1ccc(C2Oc3cc(-c4cnc([C@@H]5CCCN5C(=O)[C@@H](NC(=O)OC)C(C)C)[nH]4)cc(F)c3-c3cc4cc(-c5cnc([C@@H]6C[C@H]7C[C@H]7N6C(=O)C(NC(=O)OC)C6CCOC(C)(C)C6)[nH]5)ccc4n32)s1 (single isomer, unassigned) [Compound 198] was run?
A: 14.3 nM

Q: What about the IC50 (HCV replicon 1A; replicon 1A) of the same compound?
A: 0.077 nM

Q: What does the source list for COC(=O)NC(C(=O)N1CCC[C@H]1c1ncc(-c2ccc3c(c2)cc2n3C(c3ccc(C4CC4)s3)Oc3cc(-c4cnc([C@@H]5CCCN5C(=O)[C@@H](NC(=O)OC)C(C)C)[nH]4)cc(F)c3-2)[nH]1)C1CCOC(C)(C)C1 (single isomer, unassigned) [Compound 224]?
A: IC50 (HCV replicon 1AY93H; [1]): 8.88 nM; IC50 (HCV replicon 1A; replicon 1A): 0.048 nM

Q: How did the IC50 (HCV replicon 1AY93H; [1]) turn out when CC[C@@H]1CC(C(NC(=O)OC)C(=O)N2CCC[C@H]2c2ncc(-c3ccc4c(c3)cc3n4C(c4ccc(C5CC5)s4)Oc4cc(-c5cnc([C@@H]6CCCN6C(=O)[C@@H](NC(=O)OC)C(C)C)[nH]5)cc(F)c4-3)[nH]2)C[C@H](CC)O1 (single isomer, unassigned) [Compound 288] was run?
A: 16 nM

Q: What about the IC50 (HCV replicon 1A; replicon 1A) of the same compound?
A: 0.0046 nM

Q: Which results are given for COC(=O)NC(C(=O)N1[C@@H]2C[C@@H]2C[C@H]1c1ncc(-c2ccc3c(c2)cc2n3C(c3cc4c(s3)CCC4)Oc3cc(-c4cnc([C@@H]5CCCN5C(=O)[C@@H](NC(=O)OC)C(C)C)[nH]4)cc(F)c3-2)[nH]1)C(C)C (single isomer, unassigned) [Compound 660]?
A: IC50 (HCV replicon 1AY93H; [2]): 1.04 nM; IC50 (HCV replicon 1A; HCV replicon 1A): 0.00338 nM

Q: Which results are given for COC(=O)NC(C(=O)N1CCC[C@H]1c1ncc(-c2ccc3c(c2)cc2n3C(c3cc(C)c(C)s3)Oc3cc(-c4cnc([C@@H]5CCCN5C(=O)[C@@H](NC(=O)OC)C(C)C)[nH]4)cc(F)c3-2)[nH]1)C(C)(C)F (single isomer, unassigned) [Compound 40]?
A: IC50 (HCV replicon 1AY93H; [1]): 1.12 nM; IC50 (HCV replicon 1A; replicon 1A): 0.002 nM

Q: COC(=O)NC(C(=O)N1CCC[C@H]1c1ncc(-c2cc(F)c3c(c2)OC(c2ccc(C4CC4)s2)n2c-3cc3cc(-c4cnc([C@@H]5CCCN5C(=O)[C@@H](NC(=O)OC)C(C)C)[nH]4)ccc32)[nH]1)C1CCOC(C)(C)C1 (single isomer, unassigned) [Compound 213] was tested. Which IC50 (HCV replicon 1AY93H; [1]) did it give?
A: 13.6 nM

Q: And the IC50 (HCV replicon 1A; replicon 1A)?
A: 0.0653 nM

Q: What does the source list for COC(=O)NC(C(=O)N1CCC[C@H]1c1ncc(-c2cc(F)c3c(c2)OC(c2ccc(C4CC4)s2)n2c-3cc3cc(-c4cnc([C@@H]5C[C@H]6C[C@H]6N5C(=O)[C@@H](NC(=O)OC)C(C)C)[nH]4)ccc32)[nH]1)C(C)(C)F (single isomer, unassigned) [Compound 100]?
A: IC50 (HCV replicon 1AY93H; [1]): 8.26 nM; IC50 (HCV replicon 1A; replicon 1A): 0.0242 nM

Q: How did the IC50 (HCV replicon 1AY93H; [1]) turn out when COC(=O)NC(C(=O)N1CCC[C@H]1c1ncc(-c2cc(F)c3c(c2)OC(c2ccc(C4CC4)s2)n2c-3cc3cc(-c4cnc([C@@H]5CCCN5C(=O)C(NC(=O)OC)C5C[C@@H](C)O[C@@H](C)C5)[nH]4)ccc32)[nH]1)C1C[C@@H](C)O[C@@H](C)C1 (single isomer, unassigned) [Compound 304] was run?
A: 16.8 nM

Q: What about the IC50 (HCV replicon 1A; replicon 1A) of the same compound?
A: 0.0455 nM

Q: How did the IC50 (HCV replicon 1AY93H; [1]) turn out when CCc1ccc(C2Oc3cc(-c4cnc([C@@H]5CCCN5C(=O)[C@@H](NC(=O)OC)C(C)C)[nH]4)cc(F)c3-c3cc4cc(-c5cnc([C@@H]6C[C@@H](F)CN6C(=O)C(NC(=O)OC)C6CCOC(C)(C)C6)[nH]5)ccc4n32)s1 (single isomer, unassigned) [Compound 257] was run?
A: 9.38 nM

Q: What about the IC50 (HCV replicon 1A; replicon 1A) of the same compound?
A: 0.0924 nM

Q: COC(=O)N[C@H](C(=O)N1CCC[C@H]1c1ncc(-c2ccc3c(c2)OC(c2ccc(C4CC4)s2)n2c-3c(F)c3cc(-c4cnc([C@@H]5CCCN5C(=O)[C@@H](NC(=O)OC)C(C)C)[nH]4)ccc32)[nH]1)C(C)C (single isomer, unassigned) [Compound 605] was tested. Which IC50 (HCV replicon 1AY93H; [2]) did it give?
A: 1.26 nM

Q: And the IC50 (HCV replicon 1A; HCV replicon 1A)?
A: 0.0017 nM

Q: What does the source list for COC(=O)N[C@H](C(=O)N1CCC[C@H]1c1ncc(-c2cc(F)c3c(c2)OC(c2csc(C4CC4)c2)n2c-3cc3cc(-c4cnc([C@@H]5CCCN5C(=O)[C@@H](NC(=O)OC)C(C)C)[nH]4)ccc32)[nH]1)C(C)C (single isomer, unassigned) [Compound 321]?
A: IC50 (HCV replicon 1AY93H; [1]): 5.79 nM; IC50 (HCV replicon 1A; Hepatitis C virus, replicon 1A): 0.0013 nM

Q: Which results are given for COC(=O)NC(C(=O)N1CCC[C@H]1c1ncc(-c2cc(F)c3c(c2)OC(c2ccc(C4CC4)s2)n2c-3cc3cc(-c4cnc([C@@H]5CCCN5C(=O)[C@@H](NC(=O)OC)C(C)C)[nH]4)ccc32)[nH]1)C1C[C@@H](C)O[C@@H](C)C1 (single isomer, unassigned) [Compound 187]?
A: IC50 (HCV replicon 1AY93H; [1]): 14.8 nM; IC50 (HCV replicon 1A; replicon 1A): 0.0664 nM

Q: With CCc1ccc(C2Oc3cc(-c4cnc([C@@H]5CCCN5C(=O)[C@@H](NC(=O)OC)C(C)C)[nH]4)cc(F)c3-c3cc4cc(-c5cnc([C@@H]6C[C@@H](F)CN6C(=O)C(NC(=O)OC)C6CCOC(C)(C)C6)[nH]5)ccc4n32)s1 (single isomer, unassigned) [Compound 256] as the compound, how does the IC50 (HCV replicon 1AY93H; [1]) read?
A: 16.9 nM

Q: What about the IC50 (HCV replicon 1A; replicon 1A) of the same compound?
A: 0.117 nM

Q: What does the source list for COC(=O)NC(C(=O)N1CCC[C@H]1c1ncc(-c2ccc3c(c2)cc2n3C(c3ccc(C4CC4)s3)Oc3cc(-c4cnc([C@@H]5C[C@@H](F)CN5C(=O)[C@@H](NC(=O)OC)C(C)C)[nH]4)cc(F)c3-2)[nH]1)C(C)(C)F (single isomer, unassigned) [Compound 113]?
A: IC50 (HCV replicon 1AY93H; [1]): 3.92 nM; IC50 (HCV replicon 1A; replicon 1A): 0.0428 nM

Q: COC(=O)N[C@H](C(=O)N1C[C@H](F)C[C@@H]1c1ncc(-c2ccc3c(c2)OC(c2cc4ccccc4s2)n2c-3cc3cc(-c4ncc([C@@H]5C[C@@H](F)CN5C(=O)[C@@H](NC(=O)OC)C5CCOCC5)[nH]4)ccc32)[nH]1)C1CCOCC1 (mixture of isomers) [Compound 814] was tested. Which IC50 (HCV replicon 1AY93H; Hepatitis C virus, read-out: 1A Y93H IC50, HCV replicon 1A Y93H) did it give?
A: 0.055 nM

Q: What about the IC50 (HCV replicon 1A; [3]) of the same compound?
A: 0.1 nM

Q: Which IC50 (HCV replicon 1AY93H; [4]) does the source give for COC(=O)NC(C(=O)N1[C@@H]2C[C@@H]2C[C@H]1c1ncc(-c2ccc3c(c2)cc2n3C(c3ccc(C(C)C)s3)Oc3cc(-c4cnc([C@@H]5CCCN5C(=O)[C@@H](NC(=O)OC)C(C)C)[nH]4)cc(F)c3-2)[nH]1)C1C[C@@H](C)O[C@@H](C)C1 (single isomer, unassigned) [Compound 283] here?
A: 0.192 nM

Q: What about the IC50 (HCV replicon 2B; [5]) of the same compound?
A: 0.68 nM

Q: For COC(=O)NC(C(=O)N1CCC[C@H]1c1ncc(-c2cc(F)c3c(c2)OC(c2ccc(C4CC4)s2)n2c-3cc3cc(-c4cnc([C@@H]5CCCN5C(=O)[C@@H](NC(=O)OC)C(C)C)[nH]4)ccc32)[nH]1)C(C)(C)F (single isomer, unassigned) [Compound 68], which IC50 (HCV replicon 1AY93H; [1]) is on record?
A: 0.12 nM

Q: What about the IC50 (HCV replicon 2B; read-out: 2B IC50, replicon 2B) of the same compound?
A: 1.12 nM

Q: Which IC50 (HCV replicon 1AY93H; [1]) does the source give for COC(=O)NC(C(=O)N1CCC[C@H]1c1ncc(-c2ccc3c(c2)cc2n3C(c3ccc(C4CC4)s3)Oc3cc(-c4cnc([C@@H]5CCCN5C(=O)[C@@H](NC(=O)OC)C(C)C)[nH]4)cc(F)c3-2)[nH]1)C1CCCCO1 (single isomer, unassigned) [Compound 341] here?
A: 0.52 nM

Q: And the IC50 (HCV replicon 2B; read-out: 2B IC50, replicon 2B)?
A: 1.24 nM

Q: How did the IC50 (HCV replicon 1AY93H; [2]) turn out when COC(=O)N[C@H](C(=O)N1CCC[C@H]1c1ncc(-c2cc(F)c3c(c2)OC(c2cc4ccccc4s2)n2c-3cc3cc(-c4cnc([C@@H]5C[C@H]6C[C@H]6N5C(=O)[C@@H](NC(=O)OC)C(C)C)[nH]4)ccc32)[nH]1)C(C)C (single isomer, unassigned) [Compound 614] was run?
A: 2.21 nM

Q: What about the IC50 (HCV replicon 1A; [3]) of the same compound?
A: 0.0015 nM

Q: How did the IC50 (HCV replicon 1AY93H; [1]) turn out when COC(=O)NC(C(=O)N1CCC[C@H]1c1ncc(-c2ccc3c(c2)cc2n3C(c3ccc(C(F)F)s3)Oc3cc(-c4cnc([C@@H]5CCCN5C(=O)[C@@H](NC(=O)OC)C(C)C)[nH]4)cc(F)c3-2)[nH]1)C1C[C@@H](C)O[C@@H](C)C1 (single isomer, unassigned) [Compound 265] was run?
A: 0.16 nM

Q: And the IC50 (HCV replicon 2B; read-out: 2B IC50, replicon 2B)?
A: 0.25 nM

Q: For COC(=O)N[C@H](C(=O)C1CCC[C@H]1c1ncc(-c2ccc3c(c2)cc2n3C(c3ccc(C(F)(F)F)s3)Oc3cc(-c4cnc([C@@H]5CCCN5C(=O)[C@@H](NC(=O)OC)C(C)C)[nH]4)cc(F)c3-2)[nH]1)C(C)C (single isomer, unassigned) [Compound 90], which IC50 (HCV replicon 1AY93H; [1]) is on record?
A: 0.74 nM

Q: What about the IC50 (HCV replicon 2B; read-out: 2B IC50, replicon 2B) of the same compound?
A: 1.91 nM

Q: Which IC50 (HCV replicon 1AY93H; [4]) does the source give for COC(=O)N[C@H](C(=O)N1CCC[C@H]1c1ncc(-c2cc(F)c3c(c2)OC(c2ccc(CCC4CC4)s2)n2c-3cc3cc(-c4cnc([C@@H]5CCCN5C(=O)[C@@H](NC(=O)OC)C(C)C)[nH]4)ccc32)[nH]1)C(C)C (single isomer, unassigned) [Compound 91] here?
A: 0.28 nM

Q: And the IC50 (HCV replicon 2B; [5])?
A: 3.14 nM
